From PubChem BioAssay (NCI)
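Following 48 hours of exposure in 96-well plates, responses at five concentrations were used to interpolate endpoints linearly. The concentration for full growth arrest is given as TGI.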

Assays:
Test in all cases: inhibition of tumour cell growth, NCI panel, 48 h
T-47D breast = test system: T-47D breast
MDA-N = test system: MDA-N
XF 498 CNS = test system: XF 498 CNS
SNB-78 CNS = test system: SNB-78 CNS
HOP-18 NSCLC = test system: HOP-18 NSCLC
DMS 273 small cell lung = test system: DMS 273 small cell lung
M19-MEL melanoma = test system: M19-MEL melanoma
RXF-631 renal = test system: RXF-631 renal
DLD-1 colon = test system: DLD-1 colon

SMILES | TGI (T-47D breast) [µM] | TGI (MDA-N) [µM] | TGI (SNB-78 CNS) [µM] | TGI (M19-MEL melanoma) [µM] | other results
CC1(C)CCC[C@@]2(C)C1C(=O)[C@@H]1O[C@]1(C)[C@@H]2CO (some centres not stated) | > 100 | > 100 | – | – | –
O=C(NCCNCCNC(=O)C(F)(F)F)C(F)(F)F | > 100 | > 100 | – | – | –
CCCCCCCCCCCCn1[nH]c(C)c(C(=S)SCCCCCCCC)c1=O | – | – | > 100 | 67.7 | TGI (XF 498 CNS): > 100 µM; TGI (HOP-18 NSCLC): > 100 µM; TGI (DMS 273 small cell lung): > 100 µM; TGI (RXF-631 renal): > 100 µM; TGI (DLD-1 colon): > 94.6 µM
CCO/C(O)=C(/C(=N)N1CCCC1)C(=O)Nc1ccc(F)cc1 | > 100 | > 100 | – | – | –
CC(=O)NC(CCCNC(=O)NCCCl)C(=O)NCc1ccccc1 (configuration not stated) | – | – | – | > 100 | TGI (HOP-18 NSCLC): > 100 µM; TGI (DMS 273 small cell lung): > 100 µM; TGI (RXF-631 renal): > 100 µM
COC(=O)c1nc(-c2nc(CCNC(=O)OC(C)(C)C)sc2Cl)sc1Cl | – | > 100 | – | – | –
COc1cc2ccc1OCc1cccc(n1)COc1ccc(cc1OC)C=Nc1ccc(cc1)-c1ccc(cc1)N=C2 | > 100 | > 100 | – | – | –
CSc1nc2c(c(O)c(C)c(=O)n2C2OCC(OC(C)=O)C(OC(C)=O)C2OC(C)=O)c(=O)n1C (configuration not stated) | – | – | > 100 | > 100 | TGI (DLD-1 colon): > 100 µM
O=C1CCCCCC1CC(Sc1ccccc1)Sc1ccccc1 (configuration not stated) | > 100 | > 100 | – | – | –
CC1(C)CC(=O)c2c(nc(SSc3nc4c(c(-c5ccc(Br)cc5)c3C#N)C(=O)CC(C)(C)C4)c(C#N)c2-c2ccc(Br)cc2)C1 | > 10 | > 10 | – | – | –
CCCC(=O)OCC1OC(n2cc(F)c(=O)[nH]c2=O)C(F)C1OC(=O)CCC (configuration not stated) | > 100 | > 100 | – | – | –
CCN(CC)c1ccc2cc(C(=O)Nc3nc(C45CC6CC(CC(C6)C4)C5)cs3)c(=O)oc2c1 | – | > 100 | – | – | –
Cc1cc(=O)oc2c3c(ccc12)OC(c1ccc(Br)cc1)CC3=O (configuration not stated) | 1.18 | > 100 | – | – | –
Cc1ccc(CC(Cc2ccc(C)cc2C(=O)O)C(=O)O)cc1 (configuration not stated) | > 100 | > 100 | – | – | –
COc1ccc(N2C(=O)[C@@H]3[C@H](C2=O)c2[nH]c4ccccc4c2C2CCC(C(C)(C)C)C[C@@H]23)cc1 (some centres not stated) | – | – | 59.5 | > 100 | TGI (XF 498 CNS): > 100 µM; TGI (DMS 273 small cell lung): > 77.9 µM; TGI (DLD-1 colon): > 100 µM
COC(=O)NC(=O)c1cn(CCCOC(=O)CCCCCCCCC(=O)OCCCn2cc(C(=O)NC(=O)OC)c(=O)[nH]c2=O)c(=O)[nH]c1=O | – | – | > 100 | > 100 | TGI (XF 498 CNS): 58.8 µM; TGI (HOP-18 NSCLC): > 100 µM; TGI (DMS 273 small cell lung): > 100 µM; TGI (RXF-631 renal): > 100 µM; TGI (DLD-1 colon): > 100 µM
Brc1ccc2c(c1)C1C(CO2)C(c2ccccc2)=NN1c1ccccc1 (configuration not stated) | – | – | > 100 | > 100 | TGI (XF 498 CNS): > 100 µM; TGI (HOP-18 NSCLC): > 100 µM; TGI (DMS 273 small cell lung): > 100 µM; TGI (DLD-1 colon): > 100 µM
CCCCCCCCCCCCCCCC(=O)OC(COC(C)=O)CO[P+](=O)O (configuration not stated) | > 100 | > 100 | – | – | –
COc1ccc([C@]23CCN(S(=O)(=O)c4ccc(C)cc4)[C@H]2[C@H](CO)C2(CC3)OCC(C)(C)CO2)cc1OC | > 100 | > 100 | – | – | –
Cc1cc(=O)oc2c(C)c3oc(CBr)c(Br)c3cc12 | 72.6 | > 100 | – | – | –

SMILES | TGI (T-47D breast) [µM] | TGI (MDA-N) [µM] | TGI (SNB-78 CNS) [µM] | TGI (M19-MEL melanoma) [µM] | other results
O=C(O)Cn1c(=O)[nH]c(=O)c2[nH]cnc21 | – | – | > 100 | > 100 | TGI (HOP-18 NSCLC): > 100 µM; TGI (DMS 273 small cell lung): > 100 µM; TGI (RXF-631 renal): > 100 µM; TGI (DLD-1 colon): > 100 µM
Cc1cc(N(CCC#N)CCC#N)ccc1N=Nc1cccc(Cl)c1 | – | – | > 100 | > 100 | TGI (DMS 273 small cell lung): > 100 µM
CCC1(N=[N+]=[N-])C(=O)c2ccccc2N(c2ccccc2)C1=O (configuration not stated) | – | – | > 100 | > 100 | TGI (XF 498 CNS): > 100 µM; TGI (HOP-18 NSCLC): > 100 µM; TGI (DMS 273 small cell lung): > 100 µM; TGI (DLD-1 colon): > 100 µM
O=C1CC(c2ccc(Cl)cc2)C2(C(=O)NC(=O)NC2=O)C(c2ccc(Cl)cc2)C1 (configuration not stated) | > 75 | 49 | – | – | –
CC(C)(CC#N)c1cc(CC(C)(C)c2cc(CC(C)(C)c3cc(C(C)(C)C4(C)OCCO4)no3)no2)no1 | > 100 | > 100 | – | – | –
CC(=O)c1sc(Nc2ccc(Cl)c(Cl)c2)nc1C | > 100 | > 100 | – | – | –
CCOC(=O)C1=COC(C)(c2ccccc2)CC1=O (configuration not stated) | > 100 | > 100 | – | – | –
CCc1cccc(C(C)CC)c1NC(=O)C(=O)C(CC(=O)Nc1ccc(Cl)c(Cl)c1)C(=O)OC (configuration not stated) | – | – | > 100 | > 100 | TGI (DMS 273 small cell lung): 55.9 µM; TGI (DLD-1 colon): > 100 µM
CC1(C)N=C(C(=O)c2ccccc2)N(O)C1(O)c1ccccc1 (configuration not stated) | > 100 | > 100 | – | – | –
C[C@H](CCC(=O)O)[C@H]1CC[C@H]2[C@@H]3[C@H](O)C[C@@H]4C[C@H](O)CC[C@]4(C)[C@H]3CC[C@]12C | > 100 | > 100 | – | – | –
Nc1cc(N2CCOCC2)nc(=O)n1-c1ccc(Cl)cc1 | > 100 | > 100 | – | – | –
N#CC(C(=N/NC(N)=S)/C(=N/NC(N)=S)C(C#N)c1ccc(Cl)cc1)c1ccc(Cl)cc1 (configuration not stated) | – | – | > 100 | > 100 | TGI (XF 498 CNS): > 100 µM; TGI (HOP-18 NSCLC): > 100 µM; TGI (DMS 273 small cell lung): > 100 µM; TGI (DLD-1 colon): > 100 µM
C[N+](C)(C)CC(=O)N/N=C(/CC1OC(=O)c2ccccc21)c1ccccc1O (configuration not stated) | > 100 | > 100 | – | – | –
CC(=O)N/N=C1/CC[C@@]2(C)C(=CC[C@H]3C4CCC(C(C)CCCC(C)C)[C@@]4(C)CCC32)C1(C)C (some centres not stated) | > 100 | – | – | – | –
COc1cc2c(c(OC)c1OC)C(=O)[C@H](Br)[C@H]2NC(=O)NCCCl | > 100 | > 100 | – | – | –
CCSC1=N/C(=C/c2ccccc2O)C(=O)N1 | > 100 | > 100 | – | – | –
CCN(CC)Cc1cc(Nc2c3ccccc3nc3c4ccccc4n(C)c23)ccc1O | – | – | 41.2 | 19 | TGI (XF 498 CNS): 17.1 µM; TGI (HOP-18 NSCLC): 27.1 µM; TGI (DMS 273 small cell lung): 17.9 µM; TGI (RXF-631 renal): 13.8 µM; TGI (DLD-1 colon): 21 µM
O=S(=O)(NC1OCCCC1I)c1ccccc1 (configuration not stated) | > 100 | > 100 | – | – | –
CC1C=C[C@H](Sc2ccccc2)CC[C@@]1(C)O (some centres not stated) | – | – | > 100 | > 100 | TGI (DLD-1 colon): > 100 µM
CN(/N=C\c1ccc2ccccc2c1)C1=NCCN1 | 75.9 | – | – | – | –
